Measured values reported in patent US12065485B2, “Treatment of staphylococcal disorders” (priority 2013, dated 2024).
Where a name gives a salt, the structure may show the parent alone. Read-outs that look alike come from different tables or passages of the source.

System: P3 promoter (RNAIII / delta-toxin expression)
Assay: USA300-P3-Luc reporter screen for inhibition of RNAIII induction (P3 promoter activation by AIP)
Assay type: cell-based, Staphylococcus aureus
Settings: for inhibition at 40 µM: Staphylococcus aureus; for % Inhibition: relative to positive control (USA400 inhibitory AIP supernatant)
Method: Staphylococcus aureus pulse-field gel electrophoresis (PFGE) type USA300 transformed with a plasmid containing the P3 promoter followed by the luciferase gene (USA300-P3-Luc) was grown in tryptic soy broth (TSB) to […] (5×10^8 CFU/mL), as determined by optical density at 600 nm, from overnight cultured bacteria and harvested via centrifugation (4,000×g, 4° C., 5 minutes). Supernatant was removed and the bacterial pellet was washed twice with an equal volume of PBS. Bacteria were suspended in PBS at 5×10^8 CFU/mL, as confirmed by plating serial dilutions onto TSB. 2×10^6 CFU washed USA300-P3-Luc was incubated with wt USA300 8-hour filtered supernatant containing stimulatory auto-inducing peptide (AIP) at a final dilution of 1:10 and 40 μM each compound in a total of 40 μL/well of TSB on a 384-well plate. The S. aureus two-component agr system induces delta-toxin expression via expression of AIP at stationary growth phase and was used to stimulate activation of the P3 promoter. Alternatively, AIP produced by a different S. aureus strain, PFGE type USA400, acts to inhibit delta-toxin expression in USA300. As a positive control, samples were incubated with USA400 8-hour filtered supernatant containing inhibitory AIP at a final dilution of 1:10 instead of test compound. Samples were incubated at 37° C. for 2 hours, then analyzed for luminescence and optical density at 600 nm. Percent Inhibition was determined by the following formula: Percent inhibition=100×(LumNo Inhibitor−Lumcompound)/(LumNo Inhibitor.−LumPositive control). Inhibitory compounds suitable for use in methods of inhibiting skin inflammation according to the disclosure were identified (Table 2) based on at least a 40% inhibition relative to the positive control, minimal reduction in growth as determined by optical density at 600 nm, and relatively low promiscuity (<10%) in relation to other high-throughput assays performed using these compounds.

[1] = 40 μM compound, 2 hours at 37° C., luminescence, relative to positive control (USA300 inhibitory AIP supernatant), read-out: % Inhibition
[2] = 40 μM compound, 2 hours at 37° C., luminescence

SMILES	inhibition at 40 µM [1] [%]	also measured
C#C[C@]1(O)CC[C@H]2[C@@H]3CCC4=Cc5oncc5C[C@]4(C)[C@H]3CC[C@@]21C [DANAZOL]	47.4	
COc1ccc(CNC(=O)Nc2ncc([N+](=O)[O-])s2)cc1 [361549, GSK-3b Inhibitor VIII, GSK-3b Inhibitor VIII]		% Inhibition [2]: 73.7%
Cc1cc(O)c2c(c1)C(=O)c1cccc(O)c1C2=O [CHRYSOPHANOL]	47.2	
COc1cc(C)c(Cc2cnc(N)nc2N)cc1OC [CPD000466374_ORMETOPRIM, ORMETOPRIM]	53.2	
COC(=O)CC[C@@H](C)[C@H]1CC[C@H]2[C@@H]3CC[C@@H]4C[C@H](O)CC[C@]4(C)[C@H]3C[C@H](O)[C@]12C [METHYL DEOXYCHOLATE]	78.9	
NCCCNCCCCNC(=O)C(NC(=O)CCCCCN=C(N)N)c1ccc(Br)cc1 (centres unmarked) [4Br-AHX]		% Inhibition [2]: 55.8%
c1ccc2c(c1)sc1ccccc12 [DIBENZOTHIOPHENE]	50.7	
O=C(O)c1ccccc1Nc1cccc(OCc2ccc3ccccc3n2)c1 [SR 2640]	98.7	
Cc1ccc(S(=O)(=O)N[C@@H](Cc2ccccc2)C(=O)CCl)cc1 [TPCK]		% Inhibition [2]: 87.8%
Nc1ccc(/N=N/c2ccccc2)c(N)n1 [PHENAZOPYRIDINE HYDROCHLORIDE]	75.5	
C/C=C(/C(=C/C)c1ccc(O)cc1)c1ccc(O)cc1 [DIENESTROL]	90.8	
Cc1ccc(Nc2c(F)cccc2Cl)c(CC(=O)O)c1 [LUMIRACOXIB | PREXIGE, LUMIRACOXIB]	60	
CC(=O)O[C@]1(C(C)=O)CC[C@H]2[C@@H]3C=C(C)C4=CC(=O)CC[C@]4(C)[C@H]3CC[C@@]21C [MEGESTROL ACETATE]	46.5	
COc1ccc(-c2c(O)c3c(OC)c4c(cc3oc2=O)OC(C)(C)C=C4)cc1 [ROBUSTIC ACID]	96.9	
O=c1c(O)c(-c2ccccc2)oc2cc(O)cc(O)c12 [Galangine]		% Inhibition [2]: 79.5%
O=C1c2cccc(O)c2C(=O)c2c(O)cccc21 [DANTRON]	76.1	
COc1ccnc(C[S+]([O-])c2nc3ccc(OC(F)F)cc3[nH]2)c1OC (centres unmarked) [PANTOPRAZOLE | PROTONIX, PANTOPRAZOLE]	52.8	
NCCOB(c1ccccc1)c1ccccc1 [AMINOETHOXYDIPHENYLBORANE]	82.1	
Cc1ccsc1C(=CCCN1CCC[C@@H](C(=O)O)C1)c1sccc1C [CPD000469176_TIAGABINE HCl, TIAGABINE HCl]	69.7	
CO/N=C1\C[C@]2(C[C@@H]3C[C@@H](C/C=C(\C)C[C@@H](C)/C=C/C=C4\CO[C@@H]5[C@H](O)C(C)=C[C@@H](C(=O)O3)[C@]45O)O2)O[C@H](/C(C)=C/C(C)C)[C@H]1C [MOXIDECTIN | CYDECTIN, MOXIDECTIN]	58.9	
O=C(O)Cc1ccccc1Nc1c(Cl)cccc1Cl [Benzeneacetic acid, 2-[(2,6-dichlorophenyl)amino]-, monosodium salt]	65.1	
C=C1CC[C@H](O)C/C1=C/C=C1\CCC[C@]2(C)[C@@H]([C@H](C)/C=C/[C@H](C)C(C)C)CC[C@@H]12 [ERGOCALCIFEROL]	51.9	
CCCc1c(OCCCCc2nnn[nH]2)ccc(C(C)=O)c1O [CPD000058555_LY 171883, LY 171883]	48.7	
CC(=O)Oc1cccc2c1C(=O)c1c(OC(C)=O)cc(C(=O)O)cc1C2=O [DIACERIN]		% Inhibition [2]: 76%
C#C[C@]1(O)CC[C@H]2[C@@H]3CCC4=CC(=O)CC[C@@H]4[C@H]3CC[C@@]21C [NORETHINDRONE]	52.4	
O=C(N/N=C/c1ccc([N+](=O)[O-])o1)c1cc([N+](=O)[O-])cc([N+](=O)[O-])c1O [NIFURSOL]	63.9	
CC(C)c1nc(CN(C)C(=O)N[C@H](C(=O)N[C@@H](Cc2ccccc2)C[C@H](O)[C@H](Cc2ccccc2)NC(=O)OCc2cncs2)C(C)C)cs1 [CPD000466395_RITONAVIR, RITONAVIR]	85.7	

SMILES	inhibition at 40 µM [1] [%]	also measured
O=C(NC(=O)c1c(F)cccc1F)Nc1cc(Cl)c(OC(F)(F)C(F)C(F)(F)F)cc1Cl (centres unmarked) [LUFENURON | PROGRAM, LUFENURON]	55.8	
O=C1C(Cl)=C(Cl)C(=O)C(Cl)=C1Cl [CHLORANIL]	47.7	
O=C1OC(c2ccc(O)cc2)(c2ccc(O)cc2)c2ccccc21 [PHENOLPHTHALEIN]	72.4	
O=C(O)c1cc2cc(Cl)ccc2[nH]1 [5-CHLOROINDOLE-2-CARBOXYLIC ACID]	47.8	
O=C(O)c1ccccc1Nc1cccc2c1C(=O)c1cccc(Nc3ccccc3C(=O)O)c1C2=O [NCI16221]		% Inhibition [2]: 49.9%
Cc1ccc(Cl)c(Nc2ccccc2C(=O)O)c1Cl [SODIUM MECLOFENAMATE]	90.9	
C[C@H](CCC(=O)O)[C@H]1CC[C@H]2[C@@H]3CC[C@@H]4CCCC[C@]4(C)[C@H]3CC[C@]12C [URSOCHOLANIC ACID]	61.3	
CC[C@H](c1ccc(O)cc1)[C@@H](CC)c1ccc(O)cc1 [HEXESTROL]	99.9	
Oc1nc(-c2ccc(C(F)(F)F)cc2)nc2c1CSCC2 [XAV939]	53.4	
Oc1cc2c(cc1O)C1c3ccc(O)c(O)c3OCC1(O)C2 (centres unmarked) [HAEMATOXYLIN]	62.9	
Cc1c(Nc2ncccc2C(=O)O)cccc1C(F)(F)F [FLUNIXIN MEGLUMINE | BANAMINE, FLUNIXIN MEGLUMINE]	69.2	
CCOc1cc(CC(=O)N[C@@H](CC(C)C)c2ccccc2N2CCCCC2)ccc1C(=O)O [CPD000466305_REPAGLINIDE, REPAGLINIDE]	49	
CCC(=O)O[C@H]1CC[C@H]2[C@@H]3CCC4=CC(=O)CC[C@]4(C)[C@H]3CC[C@]12C [TESTOSTERONE PROPIONATE]	65.7	
CN1C[C@H](C(=O)N[C@]2(C)O[C@@]3(O)[C@@H]4CCCN4C(=O)[C@H](Cc4ccccc4)N3C2=O)C[C@@H]2c3cccc4[nH]cc(c34)C[C@H]21 [DIHYDROERGOTAMINE MESYLATE]	52.2	
CC(C)c1cc2c(c(O)c1O)[C@@]1(C(=O)O)CCCC(C)(C)[C@@H]1CC2 [CARNOSIC ACID]	95.8	
CC(C)c1ccc2c(c1)c(SC(C)(C)C)c(CC(C)(C)C(=O)O)n2Cc1ccc(Cl)cc1 [1H-Indole-2-propanoic acid, 1-[(4-chlorophenyl)methyl]-3-[(1,1-dimethylethyl)thio]-Alpha,Alpha-dimethyl-5-(1-methylethyl)-]	86.3	
C=C1C[C@]23C[C@@]1(O)CC[C@H]2[C@@]12C=C[C@H](O)[C@@](C)(C(=O)O1)[C@H]2[C@@H]3C(=O)O [G[…]]		inhibition at 40 µM (USA300, 2 h): 60.5%
C[C@@H]1CC[C@@]2(OC1)O[C@H]1C[C@H]3[C@@H]4CC[C@@H]5C[C@@H](O)CC[C@]5(C)[C@H]4CC[C@]3(C)[C@H]1[C@@H]2C [SMILAGENIN]		% Inhibition [2]: 75.3%
CCCC[C@@H](CC)COC(=O)C(C#N)=C(c1ccccc1)c1ccccc1 [OCTOCRYLENE | EUSOLEX, OCTOCRYLENE]		% Inhibition [2]: 97.9%
CSc1ccc(/C=C2/C(C)=C(CC(=O)O)c3cc(F)ccc32)cc1 [Sulindac Sulfide]	72.4	
O=C(c1ccc(F)cc1)C1CCN(CCn2c(=S)[nH]c3ccccc3c2=O)CC1 [CPD000466283_Altanserin, Altanserin]	59	
Oc1c2ccccc2c2c3c(cccc13)N=N2 [SP 600125]	45.3	
O=C(/C=C/c1ccc(O)cc1)c1ccccc1O [2′,4-DIHYDROXYCHALCONE]	71.9	
O=C(O)c1nn(Cc2ccc(Cl)cc2Cl)c2ccccc12 [Lonidamine]	71.3	
COC(=O)[C@H](c1ccccc1Cl)N1CCc2sccc2C1 [CLOPIDOGREL SULFATE]	69.4	
Cc1cc(CC(=O)O)n(C)c1C(=O)c1ccc(Cl)cc1 [ZOMEPIRAC SODIUM]	64.8	
